# Experiments:
# PTX-induced CIPN [1] = experiment: Four PTX injections, concurrent 4-AP (Example 2); assay type: in vivo, mice; conditions: 4-AP 1 mg/kg daily concurrent
# Procedure: A subset of animals concurrently received 4-AP (1 mg/kg, daily), which was started at the same as the initial PTX treatment and continued throughout. Functional outcome responses were recorded at three-week intervals throughout the study period, and included von Frey monofilament testing, cold plate thermal sensitivity, CatWalk™ gait analysis, and nerve conduction testing. All animals had functionally demonstrable peripheral neuropathy at six weeks.
# PTX-induced CIPN [2] = experiment: Repetitive PTX exposure, concurrent low-dose 4-AP weeks 1-12: function and nerve ultrastructure (Examples 3 and 4); assay type: in vivo, mice
# Procedure: To determine whether 4-AP also conferred protection against developing CIPN when animals were repetitively exposed to PTX, 16 week old C7BL/6 female mice were given four cycles of PTX treatment at doses of 35 mg/kg PTX (i.p.). Animals were separated into control (saline, i.p.) or treatment group treated with a dose of 4AP 25% of that used in Examples 1 and 2 (i.e., 0.5 mg/kg 4-AP daily, i.p.).
# To determine whether 4-AP prevented chemotherapy-induced structural damage even when chemotherapy was applied multiple times, ultrastructural analyses of tissue from mice treated with 35 mg/kg PTX, every 3 weeks, for 4 cycles of treatment was conducted. A low dose of 4-AP that was only 25% of the dose used in Examples 1 and 2 was used, which was applied at 0.5 mg/kg daily instead of 2 mg/kg daily.
# CIS-induced CIPN = assay type: in vivo, mice; conditions: 4-AP 1 mg/kg daily for next six weeks
# Procedure: In these experiments, 16-week-old C7BL/6 female mice were treated with CIS (2.5 mg/kg, once weekly, i.p.) for eight weeks. Animals were then treated with 4-AP (1 mg/kg daily) for the next six weeks (n=4).
# [3] = test system: E0771 murine breast cancer cell line; experiment: 4-AP co-applied with paclitaxel to cancer cells in vitro (Example 10); assay type: cell-based
# Procedure: To investigate the effects of 4-AP treatment on cancer cells, 4-AP was co-applied with either paclitaxel or cisplatin in dose response curves extending over a >20-fold range to the widely studied E0771 murine breast cancer cell line and the A549 human lung cancer cell line. Cells were exposed to paclitaxel or cisplatin for 5 days in the presence or absence of 1 mM 4-AP. This concentration of 4-AP is typically used for in vitro studies, and greatly exceeds achievable concentrations in vivo. This higher dose would increase the likelihood of detecting protective activity.
# [4] = test system: chronic spinal cord injury; conditions: individuals with chronic spinal cord injury; cited from earlier work
# [5] = test system: acute peripheral nerve traumatic crush injuries; conditions: localized peripheral nerve crush injuries; cited from earlier work
# [6] = four cycles 35 mg/kg PTX, 0.5 mg/kg 4-AP daily
# [7] = four cycles 35 mg/kg PTX, 0.5 mg/kg 4-AP daily i.p.
structure (smiles),measurement,setting,value
"Nc1ccncc1 [4-AP, 4-aminopyridine]","mechanical allodynia, Von Frey filament testing",PTX-induced CIPN [1]; four 35 mg/kg PTX i.p. at three-week intervals,no changes from baseline in their response
same,amplitude and velocity of nerve impulse conduction,PTX-induced CIPN [1]; four 35 mg/kg PTX,prevented the development of these changes
same,"loss of cold sensitivity, paw lifts and hind paw licks on cold plate",PTX-induced CIPN [1]; four 35 mg/kg PTX,prevented the development of these changes
same,"sensitivity to cold, jumps off cold plate",PTX-induced CIPN [1]; four 35 mg/kg PTX,no changes from baseline in this parameter
same,G ratio (axon:myelin area),PTX-induced CIPN [2]; [6],better myelinated than the control (PTX+Saline) group
same,axon circularity,PTX-induced CIPN [2]; [6],more regularly structured than the control group
same,frequency of degenerating myelin profiles,PTX-induced CIPN [2]; [6],decreased frequency of degenerating myelin profiles
same,"gait abnormalities, Catwalk analyses",PTX-induced CIPN [2]; [7],ameliorated PTX-induced gait abnormalities
same,"jumping behavior, cold-plate stimulus",PTX-induced CIPN [2]; [7],"highly significant at Weeks 6, 9 and 12"
same,"nerve conduction (latency, amplitude, velocity)",PTX-induced CIPN [2]; [7],ameliorated PTX-induced abnormalities in nerve conduction
same,"pawlifts, cold-plate stimulus",PTX-induced CIPN [2]; [7],trended significant at Weeks 6 and 9 and were highly significant at Week 12
same,"mechanical hypersensitivity, von Frey filament testing","PTX-induced CIPN [2]; four cycles 35 mg/kg PTX, 0.5 mg/kg 4-AP daily i.p. weeks 1-12",ameliorated PTX-induced mechanical hypersensitivity
same,mitochondrial health by mitochondrial structure,"PTX-induced CIPN [2]; repetitive exposure to chemotherapy, 0.5 mg/kg 4-AP daily",improves mitochondrial health
same,body weight,CIS-induced CIPN; CIS 2.5 mg/kg once weekly i.p. for eight weeks,regained normal body weight
same,"hyperalgesia, Von Frey filament analysis",CIS-induced CIPN; CIS eight weeks,restoration of normal levels of sensitivity
same,nerve impulse amplitude,CIS-induced CIPN; CIS eight weeks,also restored by 4-AP treatment
same,nerve impulse velocity,CIS-induced CIPN; CIS eight weeks,also restored by 4-AP treatment
same,protection of cancer cells from PTX,"[3]; 5 days exposure to PTX in vitro, concurrent 4-AP (1 mM)",did not protect
same,sensitivity of cancer cells to paclitaxel,"[3]; 5 days, 1 mM 4-AP",appears to even increase sensitivity to low doses of paclitaxel
same,Phase III outcome,[4],failed to reveal significant benefits
same,neuropathic pain,[4],decrease neuropathic pain in some individuals
same,recovery of thermal hyperalgesia and mechanical allodynia,[5],"enhanced recovery on the specific parameter or thermal hyperalgesia, but not mechanical allodynia"

# — US20260248773A1, “POTASSIUM CHANNEL BLOCKERS OR DERIVATIVES THEREOF FOR PREVENTING, ALLEVIATING, AND/OR TREATING TISSUE DYSFUNCTION CAUSED BY TOXIC INSULTS” (priority 2022, published 2026)
